Test results taken from publication PMC6701825, “Antiproliferative and Antimigratory Effects of a Novel YAP–TEAD Interaction Inhibitor Identified Using in Silico Molecular Docking” (Journal of Medicinal Chemistry, 2019).
Entries after “also recorded” stand apart in the source; their conditions may differ.

Experiments:
RaVSMCs [1] = assay: Real-time IncuCyte scratch wound migration assay in RaVSMCs; format: cell-based, rat
Procedure: (§1) Cell proliferation was measured using the Click-iT EdU 488 assay (Sigma-Aldrich). Briefly, the cells were treated with indicated concentrations of compounds for 24 h with the last 4 h being in the presence of 10 μM EdU. The cells were fixed in 4% formaldehyde and stained for EdU incorporation, following the kit’s standard protocol. The cells were counterstained with Hoechst 33342 nucleic acid for 20 min. Fluorescent images of at least three fields of view per well were counted using ImageJ software. Real-time analysis of cell migration was performed using an IncuCyte ZOOM live cell imaging system (Essen BioScience) according to the manufacturer’s instructions. Briefly, the cells were seeded (1.2 × 10^4 cells/well for HeLa cells, 1.5 × 10^4 cells/well for RaVSMCs, and 1 × 10^4 cells/well) into ImageLock 96-well plates. After 36 h, the cells were pretreated overnight with indicated concentrations of compounds. The wells were scratched using a WoundMaker tool, and the media were replaced containing test compounds. Phase contrast images of cell migration into the wounded area were acquired hourly for 24 h. Relative wound confluence was calculated using the Cell Migration Image analysis module of the IncuCyte ZOOM software.
Supplement Figure 5: Effect of low micromolar doses of CPD3 on rat VSMC migration.
VSMC were incubated with the indicated doses of CPD3 for 18 hours before quantification […]

[2] = test system: TEAD-independent minimal TNT1 gene promoter; assay: Minimal TNT1 promoter-luciferase (minP-LUC) reporter in HeLa cells; format: cell-based, human; settings: 6 h
Source text: Activation of TEAD transcription factors in response to YAP binding induces the expression of many genes that encode proteins known to be involved in promoting cell proliferation and migration (see Supplement Figure 14). The best characterized TEAD target genes associated with the promotion of cell proliferation and migration are CCN1 and CTGF.[39],[59],[60] […] We therefore tested whether CPD3 inhibited the promoter activity of known TEAD target genes, CCN1 and CTGF, in the HeLa transformed cell line and primary rat VSMCs (RaVSMCs). Cells were transfected with plasmids expressing bioluminescent firefly luciferase reporter genes under the control of either the CCN1 or CTGF promoter regions. […] As both CCN1 and CTGF are classical TEAD target genes, this is consistent with the inhibition of TEAD activity by CPD3.
TNT1-minP reporter containing the Troponin-T minimal promoter was generated by digesting 8xGTIIC-luciferase plasmid (Addgene #34615) with Kpn1 and BglII to remove the TEAD elements, followed by blunt end re-ligation. A 2.177 kb fragment of the human CCN1 promoter containing two proximal TEAD elements (Hg19;chr1:86044316–chr1:86046493) was described previously[39] and cloned into pGL4-luciferase (Promega). […]

RaVSMCs [3] = assay: EdU proliferation assay in RaVSMCs; format: cell-based, rat; settings: 18 h then 6 h 10 μM EdU
Procedure: as §1

nano-luciferase enzyme = target: T1, nano-luciferase enzyme (Oplophorus gracilirostris, UniProt Q9GV45, A31E/A60N/A81I/F95D/I117V/K70R/L54V/L99Q/M102K/N193R/P142E/Q151K/Q38R/Q45L/V71I/Y165I); assay: Direct inhibition of nanoluciferase enzyme in conditioned media; format: biochemical; settings: conditioned media containing nano-luciferase, indicated concentrations
T1 construct: heterologous secretion signal (sec-Nluc) (N); expressed in transfected cells; probably the TEAD-NLUC HeLa reporter cells
T1 sequence (Q9GV45 other isoform, or with tags, fused parts or gaps with the stated changes): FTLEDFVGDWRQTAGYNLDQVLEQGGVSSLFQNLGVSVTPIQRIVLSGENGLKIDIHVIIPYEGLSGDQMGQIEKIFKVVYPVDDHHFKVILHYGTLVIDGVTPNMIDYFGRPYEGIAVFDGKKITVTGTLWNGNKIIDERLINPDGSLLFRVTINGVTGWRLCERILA
Procedure: Cell conditioned media containing nano-luciferase enzyme was incubated with the indicated
concentrations of CPD3 (A) or CPD3.1 (B) and nano-luciferase activity assayed.
(1 picture or pasted object on this page, not shown here)

TEAD3 = target: T2, TEAD3 (Homo sapiens, UniProt Q99594); assay: GAL4-TEAD3 fusion / 5xGAL4-secNLUC reporter in HeLa cells; format: cell-based; settings: 100 μM, 6 h
T2 construct: #18881 (FLAG-YAP); host or cells: HeLa
T2 sequence (Q99594 whole entry, the tested form may be a part): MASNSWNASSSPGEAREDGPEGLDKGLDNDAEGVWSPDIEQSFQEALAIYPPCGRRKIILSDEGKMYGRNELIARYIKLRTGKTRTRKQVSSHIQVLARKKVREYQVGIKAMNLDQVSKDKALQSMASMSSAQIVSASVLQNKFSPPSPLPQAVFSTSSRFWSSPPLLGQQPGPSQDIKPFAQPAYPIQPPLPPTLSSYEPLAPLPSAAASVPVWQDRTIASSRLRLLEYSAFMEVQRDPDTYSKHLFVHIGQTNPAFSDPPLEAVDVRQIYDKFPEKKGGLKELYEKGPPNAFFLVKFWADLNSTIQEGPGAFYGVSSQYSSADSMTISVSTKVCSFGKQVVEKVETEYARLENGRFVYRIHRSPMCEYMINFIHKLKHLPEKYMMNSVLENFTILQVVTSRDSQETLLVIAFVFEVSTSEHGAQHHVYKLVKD
Source text: TEAD proteins (TEAD1–4) display a high degree of sequence conservation in residues that create the hydrophobic pocket that is essential for YAP binding.[51] YAP proteins also display a high degree of conservation in residues that interact with this pocket.[51] We therefore tested whether CPD3.1 was able to inhibit YAP-induced activity of TEAD1, TEAD2, TEAD3, and TEAD4. To quantify the effect of CPD3.1 on the activity of each individual TEAD paralog, while excluding interference from endogenously expressed TEAD1–4 proteins, we expressed each TEAD paralog (TEAD1–4) fused to the yeast GAL4 DNA-binding domain. Cells were transfected with the GAL4–TEAD expression vector together with a secreted nanoluciferase reporter gene vector under control of a promoter containing five GAL4 DNA-binding elements. This system allows us to study the effect of CPD3.1 on the activity of each individual TEAD protein in isolation, without interference from endogenously expressed transcription factors. In addition, the cells were co-transfected with a YAP expression vector to activate the GAL4–TEAD fusion-dependent transcription (see Supplement Figure 9). Basal activities of TEAD1, TEAD2, TEAD3, and TEAD4 were inhibited by CPD3.1 (Figure 7A–D). […]
Figure 7 Compound 3.1 inhibits TEAD1, TEAD2, TEAD3, and TEAD4 activities. […] Secreted nano-luciferase activity was quantified in the conditioned media. […]

Structure (SMILES)	cell migration (scratch wound) (RaVSMCs [1])	activity of TEAD-independent minimal TNT1 promoter (minP-LUC) [2]	cell proliferation (EdU incorporation) (RaVSMCs [3])	direct inhibitory effect on NLUC enzymatic activity (nano-luciferase enzyme)	basal activity of GAL4-TEAD3 (TEAD3)	YAP-stimulated activity of GAL4-TEAD3 (TEAD3; YAP overexpression)
Cc1ccc2c(c1)c1c3n2CCN(CC(O)CN2CCN(C(=O)c4ccco4)CC2)C3CCC1 (stereo not drawn) [CPD3]	dose-dependently inhibited	not inhibited by any concentration	dose-dependently inhibited cell proliferation	do not non-specifically inhibit nano-luciferase; also recorded: did not affect cell viability (Supplement Figure 6) or have any direct inhibitory effect on NLUC enzymatic activity		
Cc1ccc2c(c1)c1c3n2CCNC3CCC1 (stereo not drawn) [CPD3.1]	inhibited in a dose-dependent manner by 2, 10, and 20 μM CPD3.1	without affecting expression		do not non-specifically inhibit nano-luciferase; also recorded: without having any direct inhibitory effect on NLUC activity	inhibited	significantly inhibited
